“And” between values parts separate entries of the source, which are not always exact repeats. Identical values can stand only once. Inconclusive results and toxic doses are left out.

T/C data for 20 compounds are collected here from PubChem BioAssay AID328 (DTP/NCI, 2004).

The test system of this assay is BDF1 mice, P388 leukemia ip, median survival T/C. Briefly: NCI In Vivo Anticancer Drug Screen. Data for tumor model P388 Leukemia (intraperitoneal) in B6D2F1 (BDF1) mice. To be noted: endpoint: median survival time, higher = longer survival. The essentials:
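Transplantable tumour in mice; compound vs vehicle dosing; survival scored; ratio of treated to control reported.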

Setting [1] is: dose: 100.0 mg/kg/injection, schedule: Q04DX003 (ip), vehicle: saline with Tween-80.
[2] abbreviates: dose: 200.0 mg/kg/injection, schedule: Q04DX003 (ip), vehicle: saline with Tween-80.
The mark [3] stands for this setting: dose: 400.0 mg/kg/injection, schedule: Q04DX003 (ip), vehicle: saline with Tween-80.
Where [4] appears, read: dose: 100.0 mg/kg/injection, schedule: Q01DX009 (ip), vehicle: saline with Tween-80.
The mark [5] stands for this setting: dose: 200.0 mg/kg/injection, schedule: Q01DX009 (ip), vehicle: saline with Tween-80.
[6] abbreviates: dose: 50.0 mg/kg/injection, schedule: Q01DX009 (ip), vehicle: saline with Tween-80.
The mark [7] stands for this setting: dose: 12.5 mg/kg/injection, schedule: Q01DX009 (ip), vehicle: saline.
Setting [8] is: dose: 12.5 mg/kg/injection, schedule: Q04DX003 (ip), vehicle: saline.
Setting [9] is: dose: 25.0 mg/kg/injection, schedule: Q01DX009 (ip), vehicle: saline.
The mark [10] stands for this setting: dose: 25.0 mg/kg/injection, schedule: Q04DX003 (ip), vehicle: saline.
The mark [11] stands for this setting: dose: 50.0 mg/kg/injection, schedule: Q04DX003 (ip), vehicle: saline.
Where [12] appears, read: dose: 100.0 mg/kg/injection, schedule: Q01DX009 (ip), vehicle: water.
Setting [13] is: dose: 100.0 mg/kg/injection, schedule: Q04DX003 (ip), vehicle: water.
[14] abbreviates: dose: 200.0 mg/kg/injection, schedule: Q01DX009 (ip), vehicle: water.
Setting [15] is: dose: 200.0 mg/kg/injection, schedule: Q04DX003 (ip), vehicle: water.
The mark [16] stands for this setting: dose: 400.0 mg/kg/injection, schedule: Q04DX003 (ip), vehicle: water.
Setting [17] is: dose: 200.0 mg/kg/injection, schedule: Q04DX003 (ip), vehicle: Klucel (hydroxypropylcellulose) (HPC).

`Cc1cccc(/C=N\OCc2ccccc2)n1`: the T/C runs as follows: under setting [1], 118 % of control; (dose: 132.0 mg/kg/injection, schedule: Q04DX003 (ip), vehicle: saline with Tween-80) 104 % of control; under setting [2], 100 % of control; (dose: 300.0 mg/kg/injection, schedule: Q04DX003 (ip), vehicle: saline with Tween-80) 108 % of control; under setting [3], 118 % of control.

As for `COC(=O)C(Sc1ccc(Cl)cc1)C1SC(=S)N(C)C1=O` (stereo not drawn), the T/C under setting [4] was 118 % of control and the T/C under setting [5] was 92 % of control.

Take `CC(C#N)(Nc1ccccc1)c1ccc(Br)cc1` (stereo not drawn): the T/C by setting is: (dose: 100.0 mg/kg/injection, schedule: Q04DX003 (ip), vehicle: saline sonified) 104 % of control; (dose: 200.0 mg/kg/injection, schedule: Q04DX003 (ip), vehicle: saline sonified) 95 % of control; (dose: 400.0 mg/kg/injection, schedule: Q04DX003 (ip), vehicle: saline sonified) 95 % of control.

For the compound `Cc1cc(Cl)ccc1NC(=O)N1c2ccccc2SC12CCCC2`, the T/C reads like this: under setting [6], 97 % of control; under setting [4], 91 % of control; under setting [5], 104 % of control.

For the compound `Clc1ccc(-c2ccccc2)cc1Cl`, the T/C under setting [6] is 115 % of control, the T/C under setting [4] is 114 % of control and the T/C under setting [5] was 118 % of control.

For `CC(C)(C)C1=C[P+](c2ccccc2)(c2ccccc2)C(C(C)(C)C)=C[P+]1(c1ccccc1)c1ccccc1`, the T/C is, setting by setting: under setting [7], 96 % of control; under setting [8], 96 % of control; under setting [9], 107 % of control; under setting [10], 100 % of control; under setting [11], 96 % of control.

Take `COc1cc2cc3c4ccccc4cc[n+]3c(C)c2cc1OC` (tested in a mixture with another compound): the T/C runs as follows: (dose: 5.0 mg/kg/injection, schedule: Q04DX003 (ip), vehicle: saline) 101 % of control; (dose: 20.0 mg/kg/injection, schedule: Q01DX009 (ip), vehicle: saline) 109 % of control; (dose: 40.0 mg/kg/injection, schedule: Q01DX009 (ip), vehicle: saline) 104 % of control; (dose: 80.0 mg/kg/injection, schedule: Q04DX003 (ip), vehicle: saline) 109 % of control.

Consider `O=c1oc2ccc(Cl)cc2n1Cc1ccc(Cl)cc1`, for which the T/C (dose: 50.0 mg/kg/injection, schedule: Q01DX005 (ip), vehicle: saline with Tween-80) is 99 % of control; the T/C (dose: 100.0 mg/kg/injection, schedule: Q01DX005 (ip), vehicle: saline with Tween-80) was 92 % of control; the T/C (dose: 200.0 mg/kg/injection, schedule: Q01DX005 (ip), vehicle: saline with Tween-80) was 92 % of control.

On to `CCOC(=O)N=C=O`, for which the T/C is 114 % of control under setting [12]; 96 % of control under setting [13]; 110 % of control under setting [14]; 99 % of control under setting [15]; 107 % of control under setting [16].

Turning to `COc1cc(/C=N/NC(=O)c2ccccc2)cc(OC)c1OC`, the T/C was 95 % of control under setting [4]; 109 % of control under setting [1]; 100 % of control under setting [5]; 104 % of control under setting [2]; 95 % of control (dose: 400.0 mg/kg/injection, schedule: Q01DX009 (ip), vehicle: saline with Tween-80); 90 % of control under setting [3].

As for `CC(C)OC(=O)Oc1cccc2c1C(=O)c1ccccc1C2=O`, the T/C was 104 % of control (dose: 100.0 mg/kg/injection, schedule: Q04DX003 (ip), vehicle: Klucel (hydroxypropylcellulose) (HPC)); 108 % of control under setting [17]; 104 % of control (dose: 400.0 mg/kg/injection, schedule: Q04DX003 (ip), vehicle: Klucel (hydroxypropylcellulose) (HPC)).

For `NNC(=O)C1CC2C=CCC(C2)C1` (stereo not drawn), the T/C is 100 % of control (dose: 50.0 mg/kg/injection, schedule: Q01DX001 (ip), vehicle: saline with Tween-80); 91 % of control (dose: 100.0 mg/kg/injection, schedule: Q01DX001 (ip), vehicle: saline with Tween-80); 91 % of control (dose: 200.0 mg/kg/injection, schedule: Q01DX001 (ip), vehicle: saline with Tween-80).

Turning to `CN1C2CCC1CN(Cc1ccccc1)C2`, the T/C was 95 % of control under setting [7]; 88 % of control under setting [8]; 95 % of control under setting [9]; 100 % of control under setting [10]; 91 % of control (dose: 50.0 mg/kg/injection, schedule: Q01DX009 (ip), vehicle: saline); 100 % of control under setting [11].

Turning to `CC(=O)NNc1ccccc1`, the T/C was 109 % of control (dose: 12.5 mg/kg/injection, schedule: Q01DX009 (ip), vehicle: Klucel (hydroxypropylcellulose) (HPC)); 109 % of control (dose: 25.0 mg/kg/injection, schedule: Q01DX009 (ip), vehicle: Klucel (hydroxypropylcellulose) (HPC)); 100 % of control (dose: 50.0 mg/kg/injection, schedule: Q01DX009 (ip), vehicle: Klucel (hydroxypropylcellulose) (HPC)); 117 % of control under setting [17].

Turning to `CCn1c2ccccc2c2cc(NC(=O)N(CCCl)N=O)ccc21`, the T/C runs as follows: (dose: 100.0 mg/kg/injection, schedule: Q01DX009 (ip), vehicle: saline sonified) 170 % of control; (dose: 200.0 mg/kg/injection, schedule: Q01DX009 (ip), vehicle: saline sonified) 150 % of control; (dose: 400.0 mg/kg/injection, schedule: Q01DX009 (ip), vehicle: saline sonified) 185 % of control.

Turning to `C[P+](C)(c1ccccc1)c1ccccc1`, the T/C was 100 % of control (dose: 6.25 mg/kg/injection, schedule: Q04DX003 (ip), vehicle: saline with Tween-80) and 104 % of control (dose: 12.5 mg/kg/injection, schedule: Q04DX003 (ip), vehicle: saline with Tween-80).

For the compound `O=c1oc2ccccc2c2c1C(c1ccc3c(c1)OCO3)C=C(c1ccc3c(c1)OCO3)O2` (stereo not drawn), the T/C by setting is: (dose: 12.5 mg/kg/injection, schedule: Q01DX009 (ip), vehicle: water) 97 % of control; (dose: 25.0 mg/kg/injection, schedule: Q01DX009 (ip), vehicle: water) 104 % of control; (dose: 25.0 mg/kg/injection, schedule: Q04DX003 (ip), vehicle: water) 113 % of control; (dose: 50.0 mg/kg/injection, schedule: Q01DX009 (ip), vehicle: water) 101 % of control and 104 % of control; (dose: 50.0 mg/kg/injection, schedule: Q04DX003 (ip), vehicle: water) 116 % of control; under setting [12], 95 % of control. Further, the T/C is, setting by setting: under setting [13], 103 % of control; under setting [14], 108 % of control and 123 % of control; under setting [15], 102 % of control and 111 % of control; (dose: 300.0 mg/kg/injection, schedule: Q01DX009 (ip), vehicle: water) 101 % of control; (dose: 300.0 mg/kg/injection, schedule: Q04DX003 (ip), vehicle: water) 102 % of control; (dose: 400.0 mg/kg/injection, schedule: Q01DX009 (ip), vehicle: water) 101 % of control. Moreover, the T/C under setting [16] is 119 % of control and 120 % of control; the T/C (dose: 500.0 mg/kg/injection, schedule: Q01DX009 (ip), vehicle: water) is 118 % of control.

With `CNC(=S)N/N=C(\C)CSC/C(C)=N/NC(=S)NC`, the T/C runs as follows: (dose: 7.5 mg/kg/injection, schedule: Q01DX009 (ip), vehicle: saline with Tween-80) 102 % of control; (dose: 15.0 mg/kg/injection, schedule: Q01DX009 (ip), vehicle: saline with Tween-80) 99 % of control and 122 % of control; (dose: 30.0 mg/kg/injection, schedule: Q01DX009 (ip), vehicle: saline with Tween-80) 102 % of control and 124 % of control; (dose: 60.0 mg/kg/injection, schedule: Q01DX009 (ip), vehicle: saline with Tween-80) 92 % of control.

Consider `[O-]c1c[n+](-c2ccccc2)no1`, for which the T/C runs as follows: under setting [6], 119 % of control; under setting [5], 94 % of control.

As for `COc1ccc(-c2oc3cc(OC4OC(C)C(O)C(O)C4O)c(O)c(O)c3c(=O)c2OC2OC(C)C(O)C(O)C2O)cc1` (stereo not drawn), the T/C is, setting by setting: (dose: 25.0 mg/kg/injection, schedule: Q01DX009 (ip), vehicle: saline + alcohol) 92 % of control; (dose: 50.0 mg/kg/injection, schedule: Q01DX009 (ip), vehicle: saline + alcohol) 92 % of control; (dose: 100.0 mg/kg/injection, schedule: Q01DX009 (ip), vehicle: saline + alcohol) 106 % of control.
